# Measured values published in patent US10668040B2, “Treatment of urea cycle disorders in neonates and infants” (Horizon Therapeutics, LLC, priority 2017, dated 2020).
# Legend:
# Format in all cases: in vivo, human
# pediatric UCD patients = experiment: Pooled ammonia analyses from short term studies
# Method: Pooled ammonia analyses from short term studies were also conducted.
# UCD patients [1] = experiment: HPN-100-009 (Example 2): treatment-emergent, serious and non-serious adverse events; settings: Age 2 Months to <2 Years
# Source text: Number of Subjects with Treatment-Emergent Adverse Events (TEAEs), Serious TEAEs, Deaths, and Discontinuations Due to TEAEs.
# End point description. An adverse event (AE) was any untoward medical occurrence, whether or not the event is considered related to the study drug. […] TEAEs were defined as AEs with an onset date on or after the first dose of study medication until study discontinuation. The Investigator assessed the causal relationship of each TEAE to the study drug as not related, possibly related, or probably related. Safety population: all enrolled subjects who received any amount of study medication. End point timeframe: up to 370 days.
# Adverse Events Information.
# Timeframe for reporting adverse events: From first dose of study treatment up to 370 days (data cutoff); median (full range) duration of treatment was 4.68 (0.2 to 10.9) months. Adverse event reporting additional description: TEAEs (defined as AEs with an onset date on or after the first dose of study medication until study discontinuation) are presented.
# UCD patients [2] = experiment: Example 3: rate of hyperammonemic crises (HACs)
# Source text: Sixteen newborn infants aged 0 to 27 days, and 10 infants and toddlers aged 28 days to 23 months received RAVICTI Oral Liquid administered just prior to breastfeeding or intake of formula or food. The recommended dosing regimen was 3-6 times per day depending on feeding schedule.
# The starting dose of RAVICTI was based on UCD status (newly diagnosed, or already stable on sodium phenylbutyrate [NaPBA] and/or sodium benzoate [NaBz]) and whether a hyperammonemic crisis was present. Subsequently, the dose may have been adjusted based on clinical and/or ammonia results, according to an algorithm provided in the protocol. […]
# Hyperammonemic crisis (HAC) was defined as having signs and symptoms consistent with hyperammonemia (such as, but not limited to, frequent vomiting, nausea, headache, lethargy, irritability, combativeness, and/or somnolence) associated with high blood ammonia and requiring medical intervention. Rate of HACs prior to enrollment was calculated as sum of (number of HAC)/sum of (subject age in days at the time of enrollment or 365 days, whichever was less) across all subjects in the corresponding group. Rate of HACs per 6 months during the safety extension was calculated as sum of (number of HAC)/sum of (days during first 6 months starting on Day 8 or number days on RAVICTI, whichever is less) across all subjects in the corresponding group.
# [3] = Example 3: urinary PAA concentrations (first full day and up to end of trial)
# Method: Urinary PAA Concentrations on the First Full Day of RAVICTI Dosing
# PK Evaluable Population: all subjects from the safety population with individual concentration-time profiles that allow computation of meaningful PK parameter values. Measurements were taken at hour 0, between 0.5 and 1.5 hours, between 1.5 and 2.5 hours, between 4 and 6 hours, between 7.5 and 8.5 hours, and between 12 and 24 hours after the first dose of the day on day 1 for stable subjects and on day 2 for subjects in HAC.
# Urinary PAA Concentrations Up to End of Trial
# PK Evaluable Population: all subjects from the safety population with individual concentration-time profiles that allow computation of meaningful PK parameter values. Measurements were taken at day 7, month 1, month 2, month 3, month 4, month 5, month 6, month 9, month 12, month 15, month 18, month 24, and at the end of the trial.
compound,measurement,setting,value
"O=C(CCCc1ccccc1)OCC(COC(=O)CCCc1ccccc1)OC(=O)CCCc1ccccc1 [RAVICTI, benzenebutanoic acid, 1′,1″-(1,2,3-propanetriyl) ester]",abnormal ammonia values,pediatric UCD patients,15%
same,Non-serious AE Anaemia: Occurrences (All),UCD patients [1],1
same,Non-serious AE Apnoeic Attack: Occurrences (All),UCD patients [1],1
same,Non-serious AE Cough: Occurrences (All),UCD patients [1],1
same,Non-serious AE Deep Vein Thrombosis: Occurrences (All),UCD patients [1],1
same,Non-serious AE Diarrhoea: Occurrences (All),UCD patients [1],1
same,Non-serious AE Gross Motor Delay: Occurrences (All),UCD patients [1],1
same,Non-serious AE Hypophagia: Occurrences (All),UCD patients [1],1
same,Non-serious AE Infections (Gastroenteritis): Occurrences (All),UCD patients [1],1
same,Non-serious AE Infections (Nasopharyngitis): Occurrences (All),UCD patients [1],1
same,Non-serious AE Infections (Upper Respiratory Tract): Occurrences (All),UCD patients [1],4
same,Non-serious AE Infections (Urinary Tract): Occurrences (All),UCD patients [1],1
same,Non-serious AE Infections (Viral): Occurrences (All),UCD patients [1],1
same,Non-serious AE Metabolic Acidosis: Occurrences (All),UCD patients [1],1
same,Non-serious AE Nail Ridging: Occurrences (All),UCD patients [1],1
same,Non-serious AE Rash: Occurrences (All),UCD patients [1],2
same,Non-serious AE Rhinorrhoea: Occurrences (All),UCD patients [1],1
same,Non-serious AE Stoma Site Reaction: Occurrences (All),UCD patients [1],1
same,Non-serious AE Teething: Occurrences (All),UCD patients [1],1
same,Non-serious AE Tibia Fracture: Occurrences (All),UCD patients [1],1
same,Non-serious AE Vesicoureteric Reflux: Occurrences (All),UCD patients [1],1
same,Non-serious AE Vomiting: Occurrences (All),UCD patients [1],3
same,Number of Deaths (All Causes),UCD patients [1],1
same,Serious AE Apnoeic Attack: Deaths Causally Related to Treatment/All,UCD patients [1],0/0
same,Serious AE Apnoeic Attack: Occurrences Causally Related to Treatment/All,UCD patients [1],0/2
same,Serious AE Hyperammonaemia: Deaths Causally Related to Treatment/All,UCD patients [1],0/0
same,Serious AE Hyperammonaemia: Occurrences Causally Related to Treatment/All,UCD patients [1],0/8
same,Serious AE Infections (Croup): Deaths Causally Related to Treatment/All,UCD patients [1],0/0
same,Serious AE Infections (Croup): Occurrences Causally Related to Treatment/All,UCD patients [1],0/1
same,Serious AE Infections (Gastroenteritis): Deaths Causally Related to Treatment/All,UCD patients [1],0/0
same,Serious AE Infections (Gastroenteritis): Occurrences Causally Related to Treatment/All,UCD patients [1],0/1
same,Serious AE Infections (Urinary Tract): Deaths Causally Related to Treatment/All,UCD patients [1],0/0
same,Serious AE Infections (Urinary Tract): Occurrences Causally Related to Treatment/All,UCD patients [1],0/1
same,Serious AE Infections (Viral): Deaths Causally Related to Treatment/All,UCD patients [1],0/0
same,Serious AE Infections (Viral): Occurrences Causally Related to Treatment/All,UCD patients [1],0/1
same,Serious AE Pneumatosis: Deaths Causally Related to Treatment/All,UCD patients [1],0/1
same,Serious AE Pneumatosis: Occurrences Causally Related to Treatment/All,UCD patients [1],0/1
same,Subjects with fatal outcome TEAE,"UCD patients [1]; 10 analyzed, up to 370 days",1 Subjects
same,Subjects with ≥1 Related TEAE,"UCD patients [1]; 10 analyzed, up to 370 days",4 Subjects
same,Subjects with ≥1 Serious Related TEAE,"UCD patients [1]; 10 analyzed, up to 370 days",0 Subjects
same,Subjects with ≥1 Serious TEAE,"UCD patients [1]; 10 analyzed, up to 370 days",6 Subjects
same,Subjects with ≥1 TEAE,"UCD patients [1]; 10 analyzed, up to 370 days",10 Subjects
same,Subjects with ≥1 TEAE Leading to Study Discontinuation,"UCD patients [1]; 10 analyzed, up to 370 days",1 Subjects
same,Rate of HACs (ratio),"UCD patients [2]; subjects aged 0 to 27 days, 16 subjects assessed",0.003
same,Rate of HACs (ratio),"UCD patients [2]; subjects aged 2 months and up to 2 years, 6 subjects assessed",0.005
same,Urinary PAA concentration,"[3]; Age 0 to <2 months, Day 7",23.7 (±31.2); μg/mL
same,Urinary PAA concentration,"[3]; Age 0 to <2 months, End of trial",11.6 (±9.0); μg/mL
same,Urinary PAA concentration,"[3]; Age 0 to <2 months, Month 1",14.6 (±17.2); μg/mL
same,Urinary PAA concentration,"[3]; Age 0 to <2 months, Month 2",12.3 (±13.3); μg/mL
same,Urinary PAA concentration,"[3]; Age 0 to <2 months, Month 3",14.4 (±10.7); μg/mL
same,Urinary PAA concentration,"[3]; Age 0 to <2 months, Month 4",6.4 (±7.1); μg/mL
same,Urinary PAA concentration,"[3]; Age 0 to <2 months, Month 5",13.2 (±14.0); μg/mL
same,Urinary PAA concentration,"[3]; Age 0 to <2 months, Month 6",5.5 (±00000); μg/mL
same,Urinary PAA concentration,"[3]; Age 0 to <2 months, Month 9",11.8 (±8.5); μg/mL
same,Urinary PAA concentration,"[3]; Age 0 to <2 months, Month 12",6.0 (±3.8); μg/mL
same,Urinary PAA concentration,"[3]; Age 0 to <2 months, Month 15",4.9 (±0.3); μg/mL
same,Urinary PAA concentration,"[3]; Age 0 to <2 months, first full day, 0.5 to 1.5 hours",46.2 (±58.6); μg/mL
same,Urinary PAA concentration,"[3]; Age 0 to <2 months, first full day, 1.5 to 2.5 hours","62.5 (±42.8), μg/mL"
same,Urinary PAA concentration,"[3]; Age 0 to <2 months, first full day, 4 to 6 hours",34.6 (±56.2); μg/mL
same,Urinary PAA concentration,"[3]; Age 0 to <2 months, first full day, 7.5 to 8.5 hours",22.8 (±25.3); μg/mL
same,Urinary PAA concentration,"[3]; Age 0 to <2 months, first full day, 12 to 24 hours",35.2 (±51.0); μg/mL
same,Urinary PAA concentration,"[3]; Age 0 to <2 months, first full day, Hour 0",11.1 (±10.4); μg/mL
same,Urinary PAA concentration,"[3]; Age 2 months to <2 years, Day 7",5.82 (±2.21); μg/mL
same,Urinary PAA concentration,"[3]; Age 2 months to <2 years, End of trial",7.0 (±5.16); μg/mL
same,Urinary PAA concentration,"[3]; Age 2 months to <2 years, Month 1",4.44 (±4.61); μg/mL
same,Urinary PAA concentration,"[3]; Age 2 months to <2 years, Month 2",3.69 (±1.82); μg/mL
same,Urinary PAA concentration,"[3]; Age 2 months to <2 years, Month 3",4.65 (±0.49); μg/mL
same,Urinary PAA concentration,"[3]; Age 2 months to <2 years, Month 4",7.14 (±00000); μg/mL
same,Urinary PAA concentration,"[3]; Age 2 months to <2 years, Month 5",3.27 (±1.96); μg/mL
same,Urinary PAA concentration,"[3]; Age 2 months to <2 years, Month 6",1.59 (±00000); μg/mL
same,Urinary PAA concentration,"[3]; Age 2 months to <2 years, Month 9",4.10 (±1.65); μg/mL
same,Urinary PAA concentration,"[3]; Age 2 months to <2 years, Month 15",2.04 (±00000); μg/mL
same,Urinary PAA concentration,"[3]; Age 2 months to <2 years, Month 18",1.64 (±00000); μg/mL
same,Urinary PAA concentration,"[3]; Age 2 months to <2 years, first full day, 0.5 to 1.5 hours",6.50 (±3.39); μg/mL
same,Urinary PAA concentration,"[3]; Age 2 months to <2 years, first full day, 1.5 to 2.5 hours",7.29 (±4.10); μg/mL
same,Urinary PAA concentration,"[3]; Age 2 months to <2 years, first full day, 4 to 6 hours",2.60 (±2.18); μg/mL
same,Urinary PAA concentration,"[3]; Age 2 months to <2 years, first full day, 7.5 to 8.5 hours",4.48 (±4.38); μg/mL
same,Urinary PAA concentration,"[3]; Age 2 months to <2 years, first full day, 12 to 24 hours",4.31 (±2.33); μg/mL
same,Urinary PAA concentration,"[3]; Age 2 months to <2 years, first full day, Hour 0",18.78 (±27.33); μg/mL
